Measured values from patent US20210254056A1, “IDENTIFICATION AND TARGETED MODULATION OF GENE SIGNALING NETWORKS” (CAMP4 THERAPEUTICS CORPORATION, priority 2017, published 2021).
Where a name gives a salt, the structure may show the parent alone. Read-outs that look alike come from different tables or passages of the source.

System: hepatocytes
Experiment: RNA-seq of hepatocytes treated with Phase III failure compounds
Conditions: for significant changes in gene expression: RNA-seq of Table 36, FPKM≥0.5, log 2(fold-change)≥1, q-value≤0.05; for significant modulation of expression of any of the genes analyzed: p≤0.05; for significant modulation of expression of disease genes: q≤0.05, genes in the value or listed in the block
Experimental: RNA-seq was performed to determine the effects of the compounds on hepatocytes.
Significance was determined by the criteria of FPKM≥0.5, a log 2(fold-change)≥1, and a […].

[1] = RNA-seq, Phase III failure compounds, hepatocytes, significance: FPKM≥0.5, log 2(fold-change)≥1, q-value≥0.05 (so in the source)

Cn1cc(C2=C(c3cn(C4CCN(Cc5ccccn5)CC4)c4ccccc34)C(=O)NC2=O)c2ccccc21 [Enzstaurin]
Number (#) of genes having significantly changed expression: 971

Cc1cc(C)c2c(c1)[C@@H](N(Cc1cc(C(F)(F)F)cc(C(F)(F)F)c1)c1nnn(C)n1)CCCN2C[C@H]1CC[C@H](C(=O)O)CC1 [Evacetrapib]
significant changes in gene expression: not observed to cause any significant changes in gene expression
significant modulation of expression of any of the genes analyzed (RNA-seq, hepatocytes): not observed to significantly modulate expression

COc1cccc2c1C(=O)c1c(O)c3c(c(O)c1C2=O)C[C@@](O)(/C(CO)=N/NC(=O)CCCCCN1C(=O)C=CC1=O)C[C@@H]3O[C@H]1C[C@H](N)[C@H](O)[C@H](C)O1 [INNO-206 (aldoxorubicin), aldoxorubicin]
Number (#) of genes having significantly changed expression: 1944
significant modulation of expression of disease genes (RNA-seq, hepatocytes): significantly (q≤0.05) modulate expression
B2M expression, RNA-seq result (gene B2M, hepatocytes): 0.38
B9D2 expression, RNA-seq result (gene B9D2, hepatocytes): 0.04
BAAT expression, RNA-seq result (gene BAAT, hepatocytes): −1.32
BBOX1 expression, RNA-seq result (gene BBOX1, hepatocytes): −1.19
BBS10 expression, RNA-seq result (gene BBS10, hepatocytes): −0.06
BCHE expression, RNA-seq result (gene BCHE, hepatocytes): −0.69
BCKDHB expression, RNA-seq result (gene BCKDHB, hepatocytes): 0
BCKDK expression, RNA-seq result (gene BCKDK, hepatocytes): −0.91
BCO1 expression, RNA-seq result (gene BCO1, hepatocytes): −0.28
BCR expression, RNA-seq result (gene BCR, hepatocytes): −0.83
BLNK expression, RNA-seq result (gene BLNK, hepatocytes): 1.32
BLOC1S3 expression, RNA-seq result (gene BLOC1S3, hepatocytes): −0.26
BMPR1A expression, RNA-seq result (gene BMPR1A, hepatocytes): −0.33
BRAF expression, RNA-seq result (gene BRAF, hepatocytes): −0.34
BSCL2 expression, RNA-seq result (gene BSCL2, hepatocytes): 0.84
BTD expression, RNA-seq result (gene BTD, hepatocytes): −0.48
C4A expression, RNA-seq result (gene C4A, hepatocytes): 0.4
C9 expression, RNA-seq result (gene C9, hepatocytes): 1.1
C10orf10 expression, RNA-seq result (gene C10orf10, hepatocytes): 1.26
C10orf11 expression, RNA-seq result (gene C10orf11, hepatocytes): −1.44
C15orf41 expression, RNA-seq result (gene C15orf41, hepatocytes): −1.28
CA2 expression, RNA-seq result (gene CA2, hepatocytes): 1.36
CA5A expression, RNA-seq result (gene CA5A, hepatocytes): −0.64
CA12 expression, RNA-seq result (gene CA12, hepatocytes): 0.43
CAV1 expression, RNA-seq result (gene CAV1, hepatocytes): 0.02
CCND1 expression, RNA-seq result (gene CCND1, hepatocytes): 0.26
CD46 expression, RNA-seq result (gene CD46, hepatocytes): 1.34
CD81 expression, RNA-seq result (gene CD81, hepatocytes): 0.46
CD320 expression, RNA-seq result (gene CD320, hepatocytes): −0.9
CDAN1 expression, RNA-seq result (gene CDAN1, hepatocytes): −0.23
CDH1 expression, RNA-seq result (gene CDH1, hepatocytes): −0.12
CEP19 expression, RNA-seq result (gene CEP19, hepatocytes): 0.44
CEP83 expression, RNA-seq result (gene CEP83, hepatocytes): −1.24
CEP164 expression, RNA-seq result (gene CEP164, hepatocytes): 1.34
CEP290 expression, RNA-seq result (gene CEP290, hepatocytes): −1.26
CFB expression, RNA-seq result (gene CFB, hepatocytes): 0.72
CFHR2 expression, RNA-seq result (gene CFHR2, hepatocytes): 1.2
CHRM3 expression, RNA-seq result (gene CHRM3, hepatocytes): −0.08
CIDEC expression, RNA-seq result (gene CIDEC, hepatocytes): −0.39
CLDN1 expression, RNA-seq result (gene CLDN1, hepatocytes): −0.93
COG1 expression, RNA-seq result (gene COG1, hepatocytes): 0.38

CS(=O)(=O)c1cc(F)cc2c3c(n(Cc4ccc(Cl)cc4)c12)[C@@H](CC(=O)O)CC3 [Laropiprant (tredaptive), Laropiprant]
significant changes in gene expression: not observed to cause any significant changes in gene expression
significant modulation of expression of any of the genes analyzed (RNA-seq, hepatocytes): not observed to significantly modulate expression

Cc1ccc2c(c1)c1c(n2CCc2ccc(C)nc2)CCN(C)C1 [Latrepirdine (dihydrochloride) (57), Latrepirdine]
Number (#) of genes having significantly changed expression [1]: 12
significant modulation of expression of any of the genes analyzed (RNA-seq, hepatocytes): not observed to significantly modulate expression
effect on disease gene expression (RNA-seq, hepatocytes): no effect on any disease gene

Cc1ccc2c(c1)c1c(n2CCc2ccc(C)nc2)CCN(C)C1 [Latrepirdine (dihydrochloride) (64), Latrepirdine]
significant changes in gene expression: not observed to cause any significant changes in gene expression

C1=C/COCc2cc(ccc2OCCN2CCCC2)Nc2nccc(n2)-c2cccc(c2)COC/1 [Pacritinib (SB1518), Pacritinib]
significant modulation of expression of disease genes (RNA-seq, hepatocytes): significantly (q≤0.05) modulate expression

C1=C/COCc2cc(ccc2OCCN2CCCC2)Nc2nccc(n2)-c2cccc(c2)COC/1 [Pacritinib]
Number (#) of genes having significantly changed expression [1]: 4114
